# Data taken from patent US20220183937A1, “METHOD FOR IMPROVING THE PERFORMANCE OF A FRAGRANCE OR A FRAGRANCE MIXTURE” (SYMRISE AG, priority 2019, published 2022).
# Counter-ions that a name gives are not always drawn.
# How the values were obtained:
# [1] = Boiling point of fragrance raw materials
# [2] = LogP of fragrance raw materials
# [3] = Example 1, fragrances for long lasting performance, head range 1.00 a 230.0
# [4] = Example 2, fragrances for thermo boost performance, head range 230.1 a 300.0
# [5] = Example 1, fragrances for long lasting performance, head range 1.00 a 3.00
# [6] = Example 2, fragrances for thermo boost performance, head range 0.00 a 3.00
compound,measurement,setting,value
O=CCc1ccccc1,Boiling Point,[1]; [3],201.5 °C
same,logP,[2],1.54
COC(Cc1ccccc1)OC,Boiling Point,[1]; [3],219.8 °C
same,logP,[2],1.93
CC1(C)[C@@H]2CC[C@@]1(C)[C@H](O)C2 (racemic) [ISOBORNEOL],Boiling Point,[1]; [3],210 °C
"COc1ccc(C(C)=O)cc1 [ACETANISOLE CRYST., ACETANISOLE]",Boiling Point,[1]; [3],229.5 °C
CC(=O)c1ccccc1 [ACETOPHENONE],Boiling Point,[1]; [3],189.8 °C
CC(=O)c1nccs1 [ACETYL THIAZOLE-2],Boiling Point,[1]; [3],209 °C
CCCCCC1CCC(=O)O1 (centres unmarked) [ALDEHYDE C18 SO-CALLED],Boiling Point,[1]; [4],265.5 °C
CCCCCCCC=O [ALDEHYDE C 8],Boiling Point,[1]; [3],176 °C
same,logP,[2]; [5],2.78
C=CCOC(=O)COCCC(C)C [ALLYL AMYL GLYCOLATE],Boiling Point,[1]; [3],217.7 °C
CCCCCOC(C)=O [AMYL ACETATE N],Boiling Point,[1]; [3],148.4 °C
"COc1ccc(C=O)cc1 [ANISIC ALDEHYDE PURE, ANISIC ALDEHYDE]",Boiling Point,[1]; [3],221.6 °C
CC(=O)OCc1ccccc1 [BENZYL ACETATE],Boiling Point,[1]; [3],215.6 °C
O=COCc1ccccc1 [BENZYL FORMATE],Boiling Point,[1]; [3],197.8 °C
same,logP,[2],1.53
"O=Cc1ccccc1 [BE[…], BENZALDEHYDE]",Boiling Point,[1]; [3],181.2 °C
same,logP,physchem,1.71
CCCCOC(C)=O [BUTYL ACETATE],Boiling Point,[1]; [3],125.8 °C
same,logP,[2],1.85
O=c1ccc2ccccc2o1 [COUMARIN],Boiling Point,[1]; [4],290.7 °C
Cc1ccc(O)cc1 [CRESOL PARA],Boiling Point,[1]; [3],190.8 °C
same,logP,[2]; [5],2.06
COc1ccc(C)cc1 [CRESYL METHYL ETHER PARA],Boiling Point,[1]; [3],170.8 °C
C=CCOC(=O)COC1CCCCC1 [CYCLOGALBANAT®],Boiling Point,[1]; [4],254.9 °C
CC(=O)OC1CCCCC1 [CYCLOHEXYL ACETATE],Boiling Point,[1]; [3],179.4 °C
same,logP,[2],2.64
CCCCCC1CCCC(=O)O1 (centres unmarked) [DECALACTONE DELTA],Boiling Point,[1]; [4],283.2 °C
same,logP,[2]; [6],2.57
CCCCCCC1CCC(=O)O1 (centres unmarked) [DECALACTONE GAMMA],Boiling Point,[1]; [4],281.7 °C
same,logP,[2]; [6],2.57
CCOC(=O)c1ccccc1 [ETHYL BENZOATE],Boiling Point,[1]; [3],215.6 °C
same,logP,physchem,2.32
CCCC(=O)OCC [ETHYL BUTYRATE],Boiling Point,[1]; [3],125.8 °C
same,logP,[2],1.85
CCCCCC(=O)OCC [ETHYL CAPROATE],Boiling Point,[1]; [3],170.1 °C
CCc1occc(=O)c1O [ETHYL MALTOL],Boiling Point,[1]; [4],283.4 °C
same,logP,[2]; [6],0.3
CCOC(=O)COc1ccccc1 [ETHYL PHENOXY ACETATE],Boiling Point,[1]; [4],252.8 °C
CCOC(=O)Cc1ccccc1 [ETHYL PHENYL ACETATE],Boiling Point,[1]; [4],234.3 °C
same,logP,physchem,2.57
CCOC(=O)CC [ETHYL PROPIONATE],Boiling Point,[1]; [3],102.3 °C
same,logP,[2],1.36
CCOc1cc(C=O)ccc1O [ETHYL VANILLIN],logP,physchem,1.55
CC12CCC(C1)C(C)(C)C2O (centres unmarked) [FENCHOL],Boiling Point,[1]; [3],210 °C
O=Cc1ccc2c(c1)OCO2 [HELIOTROPIN],Boiling Point,[1]; [4],257 °C
same,logP,[2]; [6],1.77
CCCC1CCC(=O)O1 (centres unmarked) [HEPTALACTONE GAMMA],Boiling Point,[1]; [4],230.3 °C
same,logP,[2]; [6],1.09
CC(=O)C1CCCC(C)(C)C1 (centres unmarked) [HERBAC],Boiling Point,[1]; [3],197.4 °C
CCC/C=C/C=O [HEXENAL TRANS-2],Boiling Point,[1]; [3],139.2 °C
same,logP,[2]; [5],1.58
CC/C=C\CCOC(C)=O [HEXENYL ACETATE CIS-3],Boiling Point,[1]; [3],176.6 °C
CCCCCCOC(C)=O [HEXYL ACETATE],Boiling Point,[1]; [3],170.1 °C
COC(OC)C(C)c1ccccc1 (centres unmarked) [HYDRATROPIC ALDEHYDE DIMETH.ACET],Boiling Point,[1]; [3],227.2 °C
"c1ccc2[nH]ccc2c1 [INDOLE FF, INDOLE]",Boiling Point,[1]; [4],250 °C
same,logP,physchem,2.05
CC(=O)OCCC(C)C [ISOAMYL ACETATE],Boiling Point,[1]; [3],134.9 °C
same,logP,[2],2.26
CC(=O)OCC(C)C [ISOBUTYL ACETATE],Boiling Point,[1]; [3],111.7 °C
"COc1nccnc1CC(C)C [ISOBUTYL METHOXYPYRAZINE-3,2]",Boiling Point,[1]; [4],236.5 °C
CC=Cc1ccc(O)c(OC)c1 [ISOEUGENOL],Boiling Point,[1]; [4],270.6 °C
same,logP,[2],2.65
"COc1nccnc1C(C)C [ISOPROPYL METHOXYPYRAZINE-2,3]",Boiling Point,[1]; [3],217.8 °C
"Cc1csc(C(C)C)n1 [ISOPROPYL METHYL THIAZOLE-2,4]",Boiling Point,[1]; [3],198 °C
CC/C=C\CCOC(C)OCC (centres unmarked) [LEAF ACETAL],Boiling Point,[1]; [3],201.4 °C
same,logP,[2]; [5],2.95
CC/C=C\CCOC(=O)OC [LEAFOVERT®],Boiling Point,[1]; [3],213 °C
same,logP,[2]; [5],2.47
CC1=CC(C)C(C=O)CC1 (centres unmarked) [LIGUSTRAL],Boiling Point,[1]; [3],200.5 °C
CCCC(C)C(=O)OCC (centres unmarked) [MANZANATE],Boiling Point,[1]; [3],157.1 °C
same,logP,[2]; [5],2.76
CC(=O)c1ccc(C)cc1 [METHYL ACETOPHENONE PARA],Boiling Point,[1]; [3],209.7 °C
same,logP,[2]; [5],2.22
"COC(=O)c1ccccc1N [METHYL ANTHRANILATE (=130085), METHYL ANTHRANILATE]",Boiling Point,[1]; [4],263.6 °C
same,logP,physchem,2.26
COC(=O)c1ccccc1 [METHYL BENZOATE],Boiling Point,[1]; [3],195.9 °C
same,logP,[2],1.83
CCCCCC(=O)OC [METHYL CAPROATE],Boiling Point,[1]; [3],148.4 °C
same,logP,[2],2.34
CCOc1cc(COC)ccc1O [METHYL DIANTILIS],Boiling Point,[1]; [4],282.4 °C
same,logP,[2]; [6],1.61
COc1cc(C)ccc1O [METHYL GUAIACOL-4],Boiling Point,[1]; [4],230.4 °C
CCCCCC#CC(=O)OC [METHYL HEPTIN CARBONATE],Boiling Point,[1]; [3],205.3 °C
same,logP,[2]; [5],2.6
COC(=O)Cc1ccccc1 [METHYL PHENYLACETATE],Boiling Point,[1]; [3],215.6 °C
same,logP,physchem,2.08
"COC(=O)c1ccccc1O [METHYL SALICYLATE PF, METHYL SALICYLATE]",Boiling Point,[1]; [4],252.2 °C
same,logP,[2],2.6
"CC(=O)CCC=C(C)C [METIL-6-HEPTEN-5-ONA-2 SUPRA, METIL-6-HEPTEN-5-ONA-2]",Boiling Point,[1]; [3],164.4 °C
CC(C)(CO)Cc1ccccc1 [MUGUETALCOHOL],Boiling Point,[1]; [4],260.6 °C
"CC/C=C\CC/C=C/C=O [NONADIENAL TRANS,CIS-2,6]",Boiling Point,[1]; [3],208.7 °C
"CC/C=C/CC/C=C/CO [NONADIENOL-2,6]",Boiling Point,[1]; [4],231.6 °C
same,logP,[2]; [6],2.87
CCCCC1CCCC(=O)O1 (centres unmarked) [NONALACTONE DELTA],Boiling Point,[1]; [4],267 °C
same,logP,[2]; [6],2.08
CCCC1CCCC(=O)O1 (centres unmarked) [OCTALACTONE DELTA],Boiling Point,[1]; [4],250 °C
CCCCC1CCC(=O)O1 (centres unmarked) [OCTALACTONE GAMMA],Boiling Point,[1]; [4],248.4 °C
CCCCCCC(C)=O [OCTANONE-2],Boiling Point,[1]; [3],163.6 °C
CCCCCC(=O)CC [OCTANONE-3],Boiling Point,[1]; [3],163.6 °C
"OCCc1ccccc1 [PHENYLETHYL ALCOHOL BA FREE, PHENYLETHYL ALCOHOL]",Boiling Point,[1]; [3],224.9 °C
same,logP,[2],1.57
O=COCCc1ccccc1 [PHENYLETHYL FORMATE],Boiling Point,[1]; [3],217.3 °C
same,logP,[2],2.02
CC(=O)OCC=C(C)C [PRENYL ACETATE],Boiling Point,[1]; [3],149.2 °C
same,logP,[2],2.18
CC(=O)OC(C)c1ccccc1 (centres unmarked) [STYRALYL ACETATE],Boiling Point,[1]; [3],223.1 °C
CC(CC=O)c1ccccc1 (centres unmarked) [TRIFERNAL],Boiling Point,[1]; [3],228.4 °C
same,logP,[2]; [5],2.45
COc1cc(C=O)ccc1O [VANILLIN],Boiling Point,[1]; [4],274.3 °C
same,logP,[2],1.05
CC1=CC(C)C(C=O)CC1 (centres unmarked) [VERTOCITRAL],Boiling Point,[1]; [3],200.5 °C
ISOOCTANONE,Boiling Point,[1]; [3],150.5 °C
same,logP,[2]; [5],2.15
MENTHONE L/ISOMENTHONE D,Boiling Point,[1]; [3],213 °C
same,logP,[2]; [5],2.87
MENTHONE/ISOMENTHONE [MENTHONE/ISOMENTHONE RAC.],Boiling Point,[1]; [3],213 °C
same,logP,[2]; [5],2.87
